Data: PubChem BioAssay (NCI)
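Protocol summary: plate cells (96-well), add compound at 5 concentrations, incubate 48 h, interpolate endpoints linearly. Definition used: TGI = concentration required for complete inhibition of growth.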

Each compound was assayed on RPMI-8226 leukemia (assay: growth of human tumour cells (NCI), 48 h).
Work on `CCOC(=O)C1C(=O)C=C(c2cc(C)ccc2O)CC1c1cccc(Cl)c1` (stereo not given) yielded a TGI of 48.3 µM. Work on `CC1=CC(C)(C)[C@H]2O[C@@]3(O)C[C@]4(C)[C@H]5C[C@@](C(C)C)(O[C@H]4c4ccoc4)O[C@H]4[C@]5(C3)O[C@@]1(O)[C@]24O` yielded a TGI greater than 100 µM.

These compounds were tested on HOP-92 NSCLC (assay: growth of human tumour cells (NCI), 48 h).
For `O=C1c2[nH]c3ccccc3c2CCN2CCCCC12` (stereo not given), the TGI was 41.8 µM. In the case of `c1coc(C2=Nc3cccc4cccc(c34)N2)c1`, the TGI is reported as 60.5 µM. `CCOC(=O)C1C(=O)C=C(c2cc(C)ccc2O)CC1c1cccc(Cl)c1` (stereo not given) gave a TGI of 61.5 µM. With `CC1=CC(C)(C)[C@H]2O[C@@]3(O)C[C@]4(C)[C@H]5C[C@@](C(C)C)(O[C@H]4c4ccoc4)O[C@H]4[C@]5(C3)O[C@@]1(O)[C@]24O` the TGI was greater than 100 µM.

The compounds below were run on HOP-62 NSCLC (assay: growth of human tumour cells (NCI), 48 h).
In the case of `O=C1c2[nH]c3ccccc3c2CCN2CCCCC12` (stereo not given), the TGI is reported as greater than 100 µM. Compound `COc1ccc(/C=C2\Oc3cc(OC(C)=O)ccc3C2=O)cc1` has a TGI greater than 100 µM. `c1coc(C2=Nc3cccc4cccc(c34)N2)c1` showed a TGI greater than 100 µM. `CCOC(=O)C1C(=O)C=C(c2cc(C)ccc2O)CC1c1cccc(Cl)c1` (stereo not given) showed a TGI greater than 100 µM. For `CC1=CC(C)(C)[C@H]2O[C@@]3(O)C[C@]4(C)[C@H]5C[C@@](C(C)C)(O[C@H]4c4ccoc4)O[C@H]4[C@]5(C3)O[C@@]1(O)[C@]24O`, the TGI was 82 µM.

These compounds were tested on PC-3 prostate (assay: growth of human tumour cells (NCI), 48 h).
`O=C1c2[nH]c3ccccc3c2CCN2CCCCC12` (stereo not given) was tested, and the TGI was 35.7 µM. For `COc1ccc(/C=C2\Oc3cc(OC(C)=O)ccc3C2=O)cc1`, the TGI was greater than 100 µM. `c1coc(C2=Nc3cccc4cccc(c34)N2)c1` gave a TGI of 80.8 µM. For `CCOC(=O)C1C(=O)C=C(c2cc(C)ccc2O)CC1c1cccc(Cl)c1` (stereo not given), the TGI was greater than 100 µM. With `CC1=CC(C)(C)[C@H]2O[C@@]3(O)C[C@]4(C)[C@H]5C[C@@](C(C)C)(O[C@H]4c4ccoc4)O[C@H]4[C@]5(C3)O[C@@]1(O)[C@]24O` the TGI was greater than 100 µM.

Each compound was assayed on HCT-116 colon (assay: growth of human tumour cells (NCI), 48 h).
For `O=C1c2[nH]c3ccccc3c2CCN2CCCCC12` (stereo not given), the TGI was 54.6 µM. For `COc1ccc(/C=C2\Oc3cc(OC(C)=O)ccc3C2=O)cc1`, the TGI was greater than 100 µM. With `c1coc(C2=Nc3cccc4cccc(c34)N2)c1` the TGI was 56.3 µM. `CCOC(=O)C1C(=O)C=C(c2cc(C)ccc2O)CC1c1cccc(Cl)c1` (stereo not given) gave a TGI greater than 100 µM. Work on `CC1=CC(C)(C)[C@H]2O[C@@]3(O)C[C@]4(C)[C@H]5C[C@@](C(C)C)(O[C@H]4c4ccoc4)O[C@H]4[C@]5(C3)O[C@@]1(O)[C@]24O` yielded a TGI greater than 100 µM.

Each compound was assayed on IGROV1 ovarian (assay: growth of human tumour cells (NCI), 48 h).
With `O=C1c2[nH]c3ccccc3c2CCN2CCCCC12` (stereo not given) the TGI was 56 µM. `COc1ccc(/C=C2\Oc3cc(OC(C)=O)ccc3C2=O)cc1` gave a TGI greater than 100 µM. `c1coc(C2=Nc3cccc4cccc(c34)N2)c1` showed a TGI greater than 100 µM. `CCOC(=O)C1C(=O)C=C(c2cc(C)ccc2O)CC1c1cccc(Cl)c1` (stereo not given) was tested, and the TGI was 51.1 µM. `CC1=CC(C)(C)[C@H]2O[C@@]3(O)C[C@]4(C)[C@H]5C[C@@](C(C)C)(O[C@H]4c4ccoc4)O[C@H]4[C@]5(C3)O[C@@]1(O)[C@]24O` showed a TGI greater than 100 µM.

Each compound was assayed on SF-295 CNS (assay: growth of human tumour cells (NCI), 48 h).
With `O=C1c2[nH]c3ccccc3c2CCN2CCCCC12` (stereo not given) the TGI was 90.2 µM. In the case of `COc1ccc(/C=C2\Oc3cc(OC(C)=O)ccc3C2=O)cc1`, the TGI is reported as greater than 100 µM. For `c1coc(C2=Nc3cccc4cccc(c34)N2)c1`, the TGI was greater than 100 µM. Compound `CCOC(=O)C1C(=O)C=C(c2cc(C)ccc2O)CC1c1cccc(Cl)c1` (stereo not given) has a TGI of 76.3 µM. `CC1=CC(C)(C)[C@H]2O[C@@]3(O)C[C@]4(C)[C@H]5C[C@@](C(C)C)(O[C@H]4c4ccoc4)O[C@H]4[C@]5(C3)O[C@@]1(O)[C@]24O` was tested, and the TGI was greater than 100 µM.

What follows are compounds tested on COLO 205 colon (assay: growth of human tumour cells (NCI), 48 h).
Compound `O=C1c2[nH]c3ccccc3c2CCN2CCCCC12` (stereo not given) has a TGI of 34.9 µM. `COc1ccc(/C=C2\Oc3cc(OC(C)=O)ccc3C2=O)cc1` gave a TGI greater than 100 µM. `c1coc(C2=Nc3cccc4cccc(c34)N2)c1` gave a TGI of 28 µM. `CCOC(=O)C1C(=O)C=C(c2cc(C)ccc2O)CC1c1cccc(Cl)c1` (stereo not given) showed a TGI of 34.9 µM. For `CC1=CC(C)(C)[C@H]2O[C@@]3(O)C[C@]4(C)[C@H]5C[C@@](C(C)C)(O[C@H]4c4ccoc4)O[C@H]4[C@]5(C3)O[C@@]1(O)[C@]24O`, the TGI was greater than 100 µM.

Each compound was assayed on K-562 leukemia (assay: growth of human tumour cells (NCI), 48 h).
`O=C1c2[nH]c3ccccc3c2CCN2CCCCC12` (stereo not given) showed a TGI of 95.3 µM. Work on `COc1ccc(/C=C2\Oc3cc(OC(C)=O)ccc3C2=O)cc1` yielded a TGI greater than 100 µM. For `c1coc(C2=Nc3cccc4cccc(c34)N2)c1`, the TGI was greater than 100 µM. Compound `CCOC(=O)C1C(=O)C=C(c2cc(C)ccc2O)CC1c1cccc(Cl)c1` (stereo not given) has a TGI of 53.8 µM. `CC1=CC(C)(C)[C@H]2O[C@@]3(O)C[C@]4(C)[C@H]5C[C@@](C(C)C)(O[C@H]4c4ccoc4)O[C@H]4[C@]5(C3)O[C@@]1(O)[C@]24O` gave a TGI greater than 100 µM.

These compounds were tested on OVCAR-8 ovarian (assay: growth of human tumour cells (NCI), 48 h).
For `O=C1c2[nH]c3ccccc3c2CCN2CCCCC12` (stereo not given), the TGI was 65.9 µM. `COc1ccc(/C=C2\Oc3cc(OC(C)=O)ccc3C2=O)cc1` was tested, and the TGI was greater than 100 µM. Compound `c1coc(C2=Nc3cccc4cccc(c34)N2)c1` has a TGI greater than 100 µM. With `CCOC(=O)C1C(=O)C=C(c2cc(C)ccc2O)CC1c1cccc(Cl)c1` (stereo not given) the TGI was greater than 100 µM. Compound `CC1=CC(C)(C)[C@H]2O[C@@]3(O)C[C@]4(C)[C@H]5C[C@@](C(C)C)(O[C@H]4c4ccoc4)O[C@H]4[C@]5(C3)O[C@@]1(O)[C@]24O` has a TGI greater than 100 µM.

These compounds were tested on TK-10 renal (assay: growth of human tumour cells (NCI), 48 h).
In the case of `O=C1c2[nH]c3ccccc3c2CCN2CCCCC12` (stereo not given), the TGI is reported as 72.4 µM. With `COc1ccc(/C=C2\Oc3cc(OC(C)=O)ccc3C2=O)cc1` the TGI was greater than 100 µM. `c1coc(C2=Nc3cccc4cccc(c34)N2)c1` was tested, and the TGI was greater than 100 µM. In the case of `CCOC(=O)C1C(=O)C=C(c2cc(C)ccc2O)CC1c1cccc(Cl)c1` (stereo not given), the TGI is reported as 57.7 µM. Compound `CC1=CC(C)(C)[C@H]2O[C@@]3(O)C[C@]4(C)[C@H]5C[C@@](C(C)C)(O[C@H]4c4ccoc4)O[C@H]4[C@]5(C3)O[C@@]1(O)[C@]24O` has a TGI greater than 100 µM.

These compounds were tested on SF-539 CNS (assay: growth of human tumour cells (NCI), 48 h).
Work on `O=C1c2[nH]c3ccccc3c2CCN2CCCCC12` (stereo not given) yielded a TGI of 40.2 µM. In the case of `COc1ccc(/C=C2\Oc3cc(OC(C)=O)ccc3C2=O)cc1`, the TGI is reported as greater than 100 µM. With `c1coc(C2=Nc3cccc4cccc(c34)N2)c1` the TGI was 39.3 µM. Compound `CCOC(=O)C1C(=O)C=C(c2cc(C)ccc2O)CC1c1cccc(Cl)c1` (stereo not given) has a TGI of 47 µM. With `CC1=CC(C)(C)[C@H]2O[C@@]3(O)C[C@]4(C)[C@H]5C[C@@](C(C)C)(O[C@H]4c4ccoc4)O[C@H]4[C@]5(C3)O[C@@]1(O)[C@]24O` the TGI was greater than 100 µM.

Each compound was assayed on HCT-15 colon (assay: growth of human tumour cells (NCI), 48 h).
Work on `O=C1c2[nH]c3ccccc3c2CCN2CCCCC12` (stereo not given) yielded a TGI greater than 100 µM. `COc1ccc(/C=C2\Oc3cc(OC(C)=O)ccc3C2=O)cc1` showed a TGI greater than 100 µM. `c1coc(C2=Nc3cccc4cccc(c34)N2)c1` was tested, and the TGI was greater than 100 µM. Compound `CCOC(=O)C1C(=O)C=C(c2cc(C)ccc2O)CC1c1cccc(Cl)c1` (stereo not given) has a TGI of 13.2 µM. `CC1=CC(C)(C)[C@H]2O[C@@]3(O)C[C@]4(C)[C@H]5C[C@@](C(C)C)(O[C@H]4c4ccoc4)O[C@H]4[C@]5(C3)O[C@@]1(O)[C@]24O` was tested, and the TGI was greater than 100 µM.

What follows are compounds tested on NCI-H522 lung (assay: growth of human tumour cells (NCI), 48 h).
`O=C1c2[nH]c3ccccc3c2CCN2CCCCC12` (stereo not given) gave a TGI of 39.8 µM. For `COc1ccc(/C=C2\Oc3cc(OC(C)=O)ccc3C2=O)cc1`, the TGI was 45.1 µM. `c1coc(C2=Nc3cccc4cccc(c34)N2)c1` was tested, and the TGI was 23.2 µM. `CCOC(=O)C1C(=O)C=C(c2cc(C)ccc2O)CC1c1cccc(Cl)c1` (stereo not given) showed a TGI of 37 µM. `CC1=CC(C)(C)[C@H]2O[C@@]3(O)C[C@]4(C)[C@H]5C[C@@](C(C)C)(O[C@H]4c4ccoc4)O[C@H]4[C@]5(C3)O[C@@]1(O)[C@]24O` was tested, and the TGI was 45.8 µM.

What follows are compounds tested on UO-31 renal (assay: growth of human tumour cells (NCI), 48 h).
Compound `COc1ccc(/C=C2\Oc3cc(OC(C)=O)ccc3C2=O)cc1` has a TGI greater than 100 µM. With `c1coc(C2=Nc3cccc4cccc(c34)N2)c1` the TGI was 64.7 µM. In the case of `CCOC(=O)C1C(=O)C=C(c2cc(C)ccc2O)CC1c1cccc(Cl)c1` (stereo not given), the TGI is reported as 65.9 µM. With `CC1=CC(C)(C)[C@H]2O[C@@]3(O)C[C@]4(C)[C@H]5C[C@@](C(C)C)(O[C@H]4c4ccoc4)O[C@H]4[C@]5(C3)O[C@@]1(O)[C@]24O` the TGI was greater than 100 µM.
